Measurements as given in patent US20230346956A1, “COMPLEX OF 7-DEACETYLFORSKOLIN AND PVP” (SciPharm S.à.r.l, priority 2020, published 2023).
Converted amounts (≈) assume the structure as drawn.

How the values were obtained:
[1] = Determination of water solubility (excess complex in water, filtration, HPLC); type: physicochemical; settings: content of active in filtrate by HPLC
Procedure: For the solubility tests, the respective complex dried by means of rotary evaporator was used. A defined amount of water is added and then complex is added until an excess of 7-DAFSK-PVP is present. The supersaturated solution is sonicated, stirred and slightly heated (water bath 40° C.). The suspension is then filtered (0.45 μm filter) and the content of 7-DAFSK in the filtrate is determined by HPLC.

[2] = system: adenylyl cyclase (HEK293 cells stably expressing EP2 receptor); assay: cAMP assay, HEK293 cells with EP2 receptor; type: cell-based, human; settings: 30 μM forskolin in DMSO, 100 μM 7-DAFSK in water or as PVP K12 complex in water, with 30 μM treprostinil, treprostinil alone = control, 30 min, room temperature
Procedure: (§1) A cAMP assay was performed using HEK293 cells (human embryonic kidney cells, 1970) with the prostaglandin receptors EP2 or EP4, or the prostacyclin receptor IP. HEK293 cells were incubated with FCS and a radioligand ([^3H] adenine). The formation of cAMP ([^3H] cAMP) was monitored experimentally.
(§2) Day 1: HEK293 cells stably expressing either EP2, EP4, or IP receptors were grown on a 6-well plate in 2 mL DMEM medium containing 10% FCS and 2 μCi [^3H]-adenine and incubated for 16 hours.
(§3) Day 2: Cells were stimulated with 30 μM treprostinil alone or in combination with […] forskolin in DMSO, 100 μM 7-DAFSK in water, or 100 μM 7-DAFSK in 7-DAFSK-PVP K12 complex in water (in fresh medium for 30 minutes at room temperature). Cells were then lysed with 2.5% perchloric acid (PCA) for 30 minutes on ice. The PCA extract was neutralized with KOH and [^3H]cAMP was separated by sequential chromatography using DOWEX and alumina columns. Radioactivity was then measured using a scintillator.
(§4) An aliquot of PCA extract from each well was used to measure radioactivity.

[3] = system: adenylyl cyclase (HEK293 cells stably expressing EP4 receptor); assay: cAMP assay, HEK293 cells with EP4 receptor; type: cell-based, human; settings: 30 μM forskolin in DMSO, 100 μM 7-DAFSK in water or as PVP K12 complex in water, with 30 μM treprostinil, treprostinil alone = control, 30 min, room temperature
Procedure: as §1, §2, §3, §4

[4] = system: adenylyl cyclase (HEK293 cells stably expressing IP receptor); assay: cAMP assay, HEK293 cells with IP receptor; type: cell-based, human; settings: 30 μM forskolin in DMSO, 100 μM 7-DAFSK in water or as PVP K12 complex in water, with 30 μM treprostinil, treprostinil alone = control, 30 min, room temperature
Procedure: as §1, §2, §3, §4

[5] = Amount going into solution in 6 mL H2O after the preparation procedure (0.45 μm filtration, HPLC); type: physicochemical; settings: control sample without PVP12, heating method, 20 mg 7-DAFSK
Procedure: For the complexation of 7-deacetyl-forskolin with PVP K12 (“Kollidon” 12 PF, Ph. Eur., USP, JP; BASF, average molar mass: about 2.5 kD), 20 mg of 7-DAFSK and 20 mg of PVP K12 were triturated in a porcelain crucible and 300 μL of ethanol was added and stirred. After 10 min, 100 μL of H2O was added, stirred, and allowed to stand again for 10 min. The solution was then heated to 140° C. in a drying oven within 40 min and left in it for a total of 45 min. After cooling, 3 mL of H2O was added and stirring was performed for 20-30 min. Then, the suspension was taken up with a syringe and filtered through 0.45 μm filter (hydrophilic). The crucible was rewashed with 3 mL H2O and the wash solution was also filtered through the filter. The content of 7-DAFSK dissolved in the 6 mL H2O was determined by HPLC. For the determination, the 7-DAFSK-PVP complex solution was diluted 1:10 with running medium. A mass fraction of 7-DAFSK in the total complex of 35 wt % was determined.
To optimize the content of 7-DAFSK in the total complex, the weight ratios of 7-DAFSK and PVP K12 used were varied (FIG. 3). […]
20 mg FSK and 40 mg PVP 25 were triturated in a porcelain crucible and 300 μL ethanol (alternatively propanol) was added and stirred. […] The content of FSK dissolved in the 6 mL H2O was determined by HPLC. A mass fraction of FSK in the total complex of <0.01 wt % was determined.

[6] = literature/background value; cited from earlier work

Structure (SMILES) | water solubility [1] [µg/mL] | activation of adenylyl cyclase ([3H]cAMP formation) [2] | activation of adenylyl cyclase ([3H]cAMP formation) [3] | activation of adenylyl cyclase ([3H]cAMP formation) [4] | proportion of the 7-DAFSK used brought into solution [5] | solubility in water [6] | solubility ([1]; 40 °C, thermodynamic from solid) [µg/mL]
C=C[C@@]1(C)CC(=O)[C@]2(O)[C@@]3(C)[C@@H](O)CCC(C)(C)[C@@H]3[C@H](O)[C@H](O)[C@@]2(C)O1 [7-DAFSK, 7-deacetyl-forskolin] | 1000 (≈ 2710 µM) | enhanced activity | enhanced activity | enhanced activity | less than a quarter | up to 1 mg/mL | –
C=C[C@@]1(C)CC(=O)[C@]2(O)[C@@]3(C)[C@@H](O)CCC(C)(C)[C@@H]3[C@H](O)[C@H](OC(C)=O)[C@@]2(C)O1 [FSK, forskolin] | – | – | – | – | – | 10 µg/mL (≈ 24.4 µM) | 10 (≈ 24.4 µM)
CCCCC[C@H](O)CC[C@@H]1[C@H]2Cc3cccc(OCC(=O)O)c3C[C@H]2C[C@H]1O [Treprostinil, treprostinil] | – | no activation of AC | no activation of AC | no activation of AC | – | – | –
